Here are results for nine compounds from article PMC8080350, “Rhodanine-3-acetamide derivatives as aldose and aldehyde reductase inhibitors to treat diabetic complications: synthesis, biological evaluation, molecular docking and simulation studies” (BMC Chemistry, 2021).

Data set [1] addresses aldehyde reductase (ALR1) (Ovis aries, UniProt A0ACI6RLT8). The data set can be described thus: ALR1 enzyme inhibition assay. The format is biochemical, lamb. Conditions: for selectivity towards ALR1 over ALR2: from IC50 values on ALR1 and ALR2. The protocol:
(§1) The newly synthesized of 5-benzylidene rhodanine-3-acetamide derivatives 3(a–g) were evaluated for in vitro enzyme inhibitory potential on aldehyde and aldose reductase enzymes. […] IC50 ± SEM (µM) values were calculated for the compounds showing more than 50% inhibition against both the isozymes, (Table 1).
(§2) All required chemicals used in the enzyme extraction procedure were of high analytical grade. Enzyme inhibitory assay was performed on ELISA microplate reader at 340 nm and 96 well-plates were used for the sample analysis. Micropipettes from Gilson were used for sample loading. Sodium-D-glucoronate and D,L-glyceraldehyde were used as substrates along with a cofactor i.e. NADPH (nicotinamide adenine dinucleotide phosphate) from Sigma Aldrich.
Aldehyde reductase enzyme was extracted from lamb kidney and the cortical part was separated carefully. The cortex was homogenized in triple volume of extraction buffer (2.0 mM EDTA, 0.25 M sucrose, 10 mM sodium phosphate and 2.5 mM β-mercaptoethanol at pH 7.2). The homogenate was centrifuged at 12,000 rpm at 4 °C for 30 min, the insoluble precipitates were discarded and the supernatant was saturated with 40%, 50% and 75% ammonium sulfate respectively and after each addition the solution was centrifuged at 12,000 rpm at 4 °C for 30 min, each time the pallet was discarded and for the last saturation the supernatant was taken and dialyzed overnight in extraction buffer. Next day the protein content was calculated via Bradford method and the crude aldehyde reductase was stored at − 80 °C [30].
The assay was performed on ELISA (Bio-Tek ELx800TM Instrument, Inc. USA) based spectrophotometric analysis in 96 well plate. The assay mixture was composed of 20 µL buffer (100 mM potassium dihydrogen phosphate pH 6.2), 10 µL test compound (1 mM), 70 µL enzyme and incubated for 10 min at 37 °C followed by addition of 40 µL Glucoronate 50 mM (as a substrate) and 50 µL (0.5 mM) NADPH (nicotinamide adenine dinucleotide phosphate) as a co-factor. After 30 min incubation optical density was measured at 340 nm.
(§3) Results were analyzed by graph pad prism® software to calculate IC50 and percentage inhibition was calculated by the following formula.
(§4) % Inhibition = […].

A further data set addresses T1, aldose reductase (ALR2) (Bos taurus, UniProt P16116).
T1 construct: The enzyme aldose reductase was extracted from calf lenses; from tissue; host or cells: calf lenses
The data set can be described thus: ALR2 enzyme inhibition assay. The data set is classed as biochemical, calf. The note with it: for IC50: substrate D,L-glyceraldehyde, cofactor NADPH, pH 6.2, 340 nm, read-out: ALR2 IC50 ± SEM. The protocol:
as §1, §2
The enzyme aldose reductase was extracted from calf lenses. 200–300 g lenses were added to triple volume of cold water and homogenized for 20 min. The homogenate was then centrifuged at 10,000 rpm for 15 min at 4 °C. The insoluble precipitates were discarded and the supernatant was saturated with 70% ammonium sulfate and after centrifugation at 10,000 rpm at 4 °C for 15 min the supernatant was dialyzed overnight and the protein contents was calculated via Bradford method and the crude aldose reductase was stored at −80 °C [31].
The assay was performed on ELISA (Bio-Tek ELx800™ Instrument, Inc. USA) based spectrophotometric analysis in 96 well plate. The assay mixture was composed of 20 µL buffer (100 mM potassium dihydrogen phosphate pH 6.2), 10 µL test compound (1 mM), 70 µL enzyme and incubated for 10 min at 37 °C followed by addition of 40 µL substrate (D,L-glyceraldehyde 50 mM for ALR2) and 50 µL NADPH (0.5 mM) (nicotinamide adenine dinucleotide phosphate) as a co-factor. After 30 min incubation optical density was measured at 340 nm.
as §3, §4

The mark [2] stands for this setting: substrate sodium D-glucuronate, cofactor NADPH, pH 6.2, 340 nm, read-out: ALR1 IC50 ± SEM.

Like-named read-outs stand apart in the source and are kept apart here.

aldehyde reductase (ALR1), sequence (A0ACI6RLT8 entry or part of it): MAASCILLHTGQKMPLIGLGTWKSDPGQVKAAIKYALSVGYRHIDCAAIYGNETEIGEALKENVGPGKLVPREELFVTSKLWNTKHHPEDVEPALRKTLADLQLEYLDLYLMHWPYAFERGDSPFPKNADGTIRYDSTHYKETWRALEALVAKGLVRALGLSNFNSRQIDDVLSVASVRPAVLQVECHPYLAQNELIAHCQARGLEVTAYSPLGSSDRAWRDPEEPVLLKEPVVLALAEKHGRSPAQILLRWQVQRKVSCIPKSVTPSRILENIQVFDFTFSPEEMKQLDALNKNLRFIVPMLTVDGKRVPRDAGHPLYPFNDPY

A word on the IC50: it is the concentration that inhibits the measured activity by half. As to “(Z) 5-(4-hydroxy-3-methoxybenzylidene)-3-(2-pyrrolidino-2-oxoethyl)-2-thioxothiazolidin-4-one [Compound 3g]”, the IC50 in data set [1] (setting [2]) was 2.22 ± 0.04 µM; at aldose reductase (ALR2) it was 2.42 ± 0.03 µM.
Take `COc1cc(/C=C2\SC(=S)N(CC(=O)Nc3ccc(C(=O)O)c(O)c3)C2=O)ccc1O` [Compound 3c, 2-Hydroxy-4-({[(Z)-5-(4-hydroxy-3-methoxybenzylidene)-4-oxo-2-thioxo-1,3-thiazolidin-3-yl]acetyl}amino)benzoic acid]: the IC50 in data set [1] (setting [2]) was 2.38 ± 0.02 µM; on aldose reductase (ALR2), 6.38 ± 0.01 µM.
As for `COc1cc(/C=C2\SC(=S)N(CC(=O)Nc3ccccc3)C2=O)ccc1O` [Compound 3a, (Z)-5-(4-hydroxy-3-methoxybenzylidene)-3-(2-anilino-2-oxoethyl)-2-thioxothiazolidin-4-one], the IC50 came out at 5.38 ± 0.07 µM in data set [1] (setting [2]) and 0.25 ± 0.04 µM on aldose reductase (ALR2).
As a reminder, the melting point is the temperature of the solid-liquid transition. `COc1cc(/C=C2\SC(=S)N(CC(=O)N3CCOCC3)C2=O)ccc1O` [Compound 3b, (Z)-5-(4-hydroxy-3-methoxybenzylidene)-3-(2-morpholino-2-oxoethyl)-2-thioxothiazolidin-4-one] yielded a melting point of 211 to 213 °C. The IC50 in data set [1] (setting [2]) worked out at 6.07 ± 0.05 µM. Also, the IC50 on aldose reductase (ALR2) came to 19.2 ± 0.08 µM.
For `CCCC(CCC)C(=O)O` [Valproic acid, reference compound], half-maximal inhibition in data set [1] (IC50) required 57.4 ± 0.89 µM.
Take `COc1ccc(/C=C2\SC(=S)N(CC(=O)N3CCOCC3)C2=O)cc1` [Compound 3f, (Z) 5-(4-methoxybenzylidene)-3-(2-morpholino-2-oxoethyl)-2-thioxothiazolidin-4-one]: the melting point was in the range of 203 to 205 °C. In addition, the IC50 in data set [1] (setting [2]) is 2.18 ± 0.03 µM. In addition, on aldose reductase (ALR2) (from IC50 values on ALR1 and ALR2), the “selectivity towards ALR2 over ALR1” value was “selective towards ALR2”. In addition, the IC50 on aldose reductase (ALR2) is 0.12 ± 0.01 µM.
Regarding `CC1=C(CC(=O)O)c2cc(F)ccc2/C1=C\c1ccc([S+](C)[O-])cc1` (centres unmarked) [Sulindac, reference compound], at aldose reductase (ALR2), the IC50 came to 0.29 ± 0.08 µM.
`COc1ccc(/C=C2\SC(=S)N(CC(=O)Nc3ccccc3)C2=O)cc1` [Compound 3e, (Z) 5-(4-methoxybenzylidene)-3-(2-anilino-2-oxoethyl)-2-thioxothiazolidin-4-one] had a melting point of 190 to 192 °C. The “selectivity towards ALR1 over ALR2” value in data set [1] is “more selective and potent inhibitors of ALR1”. For the same compound, the IC50 in data set [1] (setting [2]) came to 2.87 ± 0.01 µM. Besides, the IC50 at aldose reductase (ALR2) is 12.71 ± 0.09 µM.
Take `COc1cc(/C=C2\SC(=S)N(CC(=O)Nc3ccc(C(=O)O)cc3)C2=O)ccc1O` [Compound 3d, 4-({[(Z)-5-(4-hydroxy-3-methoxybenzylidene)-4-oxo-2-thioxo-1,3-thiazolidin-3-yl]acetyl}amino)benzoic acid]: the melting point is 217 to 219 °C. Also, the “selectivity towards ALR1 over ALR2” value in data set [1] is “more selective and potent inhibitors of ALR1”. For the same compound, the IC50 in data set [1] (setting [2]) was found to be 3.76 ± 0.09 µM. Further, the IC50 on aldose reductase (ALR2) worked out at 7.36 ± 0.02 µM.
